# Data from PubChem BioAssay (NCI).
#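 GI50 = concentration required for 50% inhibition of growth. Definition used: TGI = concentration required for complete inhibition of growth.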
# Key:
# Assay in all cases: inhibition of tumour cell growth, NCI panel, 384-well format
# [1] = tested on: SN12C renal
# [2] = tested on: T-47D breast
# [3] = tested on: OVCAR-8 ovarian
# [4] = tested on: NCI-H23 lung
# [5] = tested on: CAKI-1 renal
# [6] = tested on: RPMI-8226 leukemia
# [7] = tested on: SW-620 colon
# [8] = tested on: NCI/ADR-RES ovarian
# [9] = tested on: ACHN renal
# [10] = tested on: SR leukemia
# [11] = tested on: SF-295 CNS
# [12] = tested on: MDA-MB-468 breast
# [13] = tested on: M14 melanoma
# [14] = tested on: OVCAR-4 ovarian
# [15] = tested on: HCT-116 colon
# [16] = tested on: MDA-MB-231 breast
# [17] = tested on: SF-268 CNS
# [18] = tested on: HOP-62 NSCLC
# [19] = tested on: A549 NSCLC
# [20] = tested on: KM12 colon
# [21] = tested on: OVCAR-3 ovarian
# [22] = tested on: HCC-2998 colon
# [23] = tested on: A498 renal
# [24] = tested on: MOLT-4 leukemia
# [25] = tested on: 786-0 renal
# [26] = tested on: OVCAR-5 ovarian
# [27] = tested on: TK-10 renal
# [28] = tested on: RXF 393 renal
# [29] = tested on: HOP-92 NSCLC
# [30] = tested on: UACC-257 melanoma
# [31] = tested on: MCF7 breast
# [32] = tested on: SK-MEL-5 melanoma
# [33] = tested on: MALME-3M melanoma
# [34] = tested on: SF-539 CNS
# [35] = tested on: CCRF-CEM leukemia
# [36] = tested on: NCI-H460 NSCLC
# [37] = tested on: SNB-75 CNS
# [38] = tested on: COLO 205 colon
# [39] = tested on: SK-MEL-28 melanoma
# [40] = tested on: NCI-H322M lung
# [41] = tested on: HT29 colon
# [42] = tested on: UO-31 renal
# [43] = tested on: K-562 leukemia
# [44] = tested on: SK-MEL-2 melanoma
# [45] = tested on: HCT-15 colon
# [46] = tested on: DU-145 prostate
# [47] = tested on: HS 578T breast
smiles,measurement,setting,value
C=CC(=O)Nc1cc(Nc2nccc(-c3cn(C)c4ccccc34)n2)c(OC)cc1N(C)CCN(C)C,GI50,[1],1330 nM
same,TGI,[1],3130 nM
same,GI50,[2],957 nM
same,TGI,[2],2380 nM
same,GI50,[3],1420 nM
same,TGI,[3],2760 nM
same,GI50,[4],1870 nM
same,TGI,[4],3670 nM
same,GI50,[5],703 nM
same,TGI,[5],2080 nM
same,GI50,[6],980 nM
same,TGI,[6],2230 nM
same,GI50,[7],1760 nM
same,TGI,[7],3180 nM
same,GI50,[8],1130 nM
same,TGI,[8],2370 nM
same,GI50,[9],453 nM
same,TGI,[9],2210 nM
same,GI50,[10],602 nM
same,TGI,[10],1290 nM
same,GI50,[11],2620 nM
same,TGI,[11],6330 nM
same,GI50,[12],37.8 nM
same,TGI,[12],189 nM
same,GI50,[13],1960 nM
same,TGI,[13],3390 nM
same,GI50,[14],2020 nM
same,TGI,[14],3540 nM
same,GI50,[15],1610 nM
same,TGI,[15],3020 nM
same,GI50,[16],1790 nM
same,TGI,[16],3210 nM
same,GI50,[17],1490 nM
same,TGI,[17],3230 nM
same,GI50,[18],1560 nM
same,TGI,[18],3370 nM
same,GI50,[19],1340 nM
same,TGI,[19],3590 nM
same,GI50,[20],2560 nM
same,TGI,[20],5720 nM
same,GI50,[21],1130 nM
same,TGI,[21],2460 nM
same,GI50,[22],767 nM
same,TGI,[22],2000 nM
same,GI50,[23],1120 nM
same,TGI,[23],2530 nM
same,GI50,[24],921 nM
same,TGI,[24],2150 nM
same,GI50,[25],1310 nM
same,TGI,[25],2600 nM
same,GI50,[26],1620 nM
same,TGI,[26],3930 nM
same,GI50,[27],317 nM
same,TGI,[27],1770 nM
same,GI50,[28],806 nM
same,TGI,[28],2150 nM
same,GI50,[29],1150 nM
same,TGI,[29],2380 nM
same,GI50,[30],840 nM
same,TGI,[30],1580 nM
same,GI50,[31],1180 nM
same,TGI,[31],2580 nM
same,GI50,[32],1220 nM
same,TGI,[32],2230 nM
same,GI50,[33],1150 nM
same,TGI,[33],2540 nM
same,GI50,[34],1440 nM
same,TGI,[34],2760 nM
same,GI50,[35],1390 nM
same,TGI,[35],2690 nM
same,GI50,[36],1760 nM
same,TGI,[36],3190 nM
same,GI50,[37],2710 nM
same,TGI,[37],6410 nM
same,GI50,[38],1590 nM
same,TGI,[38],2950 nM
same,GI50,[39],1660 nM
same,TGI,[39],3040 nM
same,GI50,[40],179 nM
same,TGI,[40],1120 nM
same,GI50,[41],1610 nM
same,TGI,[41],2990 nM
same,GI50,[42],746 nM
same,TGI,[42],2120 nM
same,GI50,[43],1160 nM
same,TGI,[43],2390 nM
same,GI50,[44],354 nM
same,TGI,[44],1200 nM
same,GI50,[45],1250 nM
same,TGI,[45],2600 nM
same,GI50,[46],1140 nM
same,TGI,[46],2610 nM
same,GI50,[47],1550 nM
same,TGI,[47],3040 nM
